Measured values: ChEMBL document CHEMBL1687795, “Mathematical modeling to characterize the inoculum effect” (2010)
≈ marks a conversion by molar mass, not a printed value. Calls of active or inactive are those of the source. No cut-off for these calls is given here.

Columns and labels:
Escherichia coli [1] = assay: Antimicrobial activity against Escherichia coli ATCC 25922 by broth macrodilution method in presence of beta-lactamase inhibitor Tazobactam; format: functional, organism-based
Escherichia coli [2] = assay: Bactericidal activity against Escherichia coli ATCC 25922 using 10^5 CFU/ml inoculum assessed as log reduction in bacterial count at 4 times MIC after 24 hrs by time-kill study; format: functional
Escherichia coli [3] = assay: Bactericidal activity against Escherichia coli ATCC 25922 using 10^8 CFU/ml inoculum assessed as log reduction in bacterial count at 256 times MIC after 24 hrs by time-kill study; format: functional
Escherichia coli [4] = assay: Antimicrobial activity against Escherichia coli ATCC 25922 by broth macrodilution method; format: functional

CCN1CCN(C(=O)N[C@@H](C(=O)N[C@@H]2C(=O)N3[C@@H]2SC(C)(C)[C@@H]3C(=O)O)c2ccccc2)C(=O)C1=O [PIPERACILLIN]
Activity (Escherichia coli [1]): Active | FC (Escherichia coli [2]): >2 | FC (Escherichia coli [3]): >2 | MBC (Escherichia coli [4]): 2 µg/mL (≈ 3.86 µM) | MIC (Escherichia coli [4]): 2 µg/mL (≈ 3.86 µM)
